Data set [1] is described as follows: Pharmacokinetics in fasted conscious CD-1 mice (iv and oral). In kind it is in vivo. As to conditions: 1 mg/kg iv, 5-10 mg/kg oral. Here is the method:
Preliminary investigations of the pharmacokinetics of selected compounds were carried out in fasted conscious CD-1 mice (25-30 g). Compounds were dosed as 1 mg/kg by intravenous administration or 5-10 mg/kg by oral route. Twenty one male mice per administration route (n=3 mice per time point) received dose solution by single bolus injection in the tail vein or by oral gavage. Blood samples were collected by cardiac puncture at 5, 15, 30, 60, 120, 240 and 360 min following iv administration and at 30, 60, 120, 240, 360, 480 and 1440 min following oral administration. Blood samples were collected into tubes containing the anti-coagulant lithium heparin, mixed and placed promptly on crushed ice. Plasma was derived from whole blood by centrifugation, frozen and stored at −80° C. prior to analysis. Plasma concentrations were determined by liquid chromatography-tandem mass spectrometry in electrospray positive mode (ESI LC/MS/MS) using calibration curves prepared in the appropriate matrix. The lower level of quantification (LLOQ) in all cases was ca. 5 ng/mL. Plasma concentration-time data was processed using the computer program WinNonLin version 5.2 from which areas under the plasma concentration-time curve (AUCall) were calculated by non-compartmental analysis using Model 201 (IV-bolus Input) or Model 200 (Extravascular Input).
FIG. 1 plots the area under the curve (AUC) for plasma concentration vs time for each compound tested. The dosing vehicle across these experiments remained constant (intravenous=citrate buffer pH 3, 1 mL/kg; oral=DMA/PEG400/10 […] Tartrate buffer, pH 4 (1:3:6), 5 ml/kg). FIG. 2 represents the same data in the form of oral bioavailability (% F) for each compound.

In data set [2] the target is PLK1 (Homo sapiens, UniProt P53350). The data set can be described thus: PLK1 protein kinase assay (CDC25C phosphorylation, [γ-32P]-ATP). In kind it is biochemical. Particulars: read-out: PLK1 IC50.
Chain of PLK1 (P53350 whole entry): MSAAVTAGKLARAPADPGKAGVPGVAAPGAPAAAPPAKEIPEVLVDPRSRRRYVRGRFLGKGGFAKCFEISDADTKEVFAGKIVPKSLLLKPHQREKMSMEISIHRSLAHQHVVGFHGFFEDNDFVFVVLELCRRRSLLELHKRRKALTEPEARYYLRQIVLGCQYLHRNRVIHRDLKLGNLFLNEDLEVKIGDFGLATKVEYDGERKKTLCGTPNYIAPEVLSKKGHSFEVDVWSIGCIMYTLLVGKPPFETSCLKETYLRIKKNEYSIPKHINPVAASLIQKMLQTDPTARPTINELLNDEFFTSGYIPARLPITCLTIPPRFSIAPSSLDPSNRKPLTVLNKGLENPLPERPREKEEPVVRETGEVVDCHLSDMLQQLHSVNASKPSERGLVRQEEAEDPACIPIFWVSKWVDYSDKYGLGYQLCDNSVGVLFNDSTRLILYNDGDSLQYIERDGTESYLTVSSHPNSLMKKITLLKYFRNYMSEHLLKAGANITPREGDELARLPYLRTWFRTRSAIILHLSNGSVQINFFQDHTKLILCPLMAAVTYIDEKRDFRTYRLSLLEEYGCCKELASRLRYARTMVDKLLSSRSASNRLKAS
Data set [3] deals with PLK3 (Homo sapiens, UniProt Q9H4B4). The data set can be described thus: PLK3 inhibition (PLK selectivity). In kind it is biochemical. As to conditions: relative selectivity.
Chain of PLK3 (Q9H4B4 whole entry): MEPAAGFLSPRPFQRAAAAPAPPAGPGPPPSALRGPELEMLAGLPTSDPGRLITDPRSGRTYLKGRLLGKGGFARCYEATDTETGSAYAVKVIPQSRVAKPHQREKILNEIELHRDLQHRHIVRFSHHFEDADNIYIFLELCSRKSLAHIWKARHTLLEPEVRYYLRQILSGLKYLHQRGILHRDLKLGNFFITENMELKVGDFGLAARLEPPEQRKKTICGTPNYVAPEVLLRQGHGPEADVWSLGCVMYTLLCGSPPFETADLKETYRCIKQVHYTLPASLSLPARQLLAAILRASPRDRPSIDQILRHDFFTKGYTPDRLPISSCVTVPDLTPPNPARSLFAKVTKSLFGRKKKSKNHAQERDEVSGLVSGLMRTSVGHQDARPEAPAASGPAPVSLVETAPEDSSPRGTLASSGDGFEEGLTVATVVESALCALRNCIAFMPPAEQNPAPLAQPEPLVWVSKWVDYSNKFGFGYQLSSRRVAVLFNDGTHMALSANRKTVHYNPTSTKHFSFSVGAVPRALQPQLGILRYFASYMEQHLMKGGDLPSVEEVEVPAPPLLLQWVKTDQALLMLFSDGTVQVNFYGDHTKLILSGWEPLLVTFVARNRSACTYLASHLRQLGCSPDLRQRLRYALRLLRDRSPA
Data set [4] deals with PLK2 (Homo sapiens, UniProt Q9NYY3). Briefly: PLK2 inhibition (PLK selectivity). Particulars: relative selectivity. It counts as biochemical.
Chain of PLK2 (Q9NYY3 whole entry): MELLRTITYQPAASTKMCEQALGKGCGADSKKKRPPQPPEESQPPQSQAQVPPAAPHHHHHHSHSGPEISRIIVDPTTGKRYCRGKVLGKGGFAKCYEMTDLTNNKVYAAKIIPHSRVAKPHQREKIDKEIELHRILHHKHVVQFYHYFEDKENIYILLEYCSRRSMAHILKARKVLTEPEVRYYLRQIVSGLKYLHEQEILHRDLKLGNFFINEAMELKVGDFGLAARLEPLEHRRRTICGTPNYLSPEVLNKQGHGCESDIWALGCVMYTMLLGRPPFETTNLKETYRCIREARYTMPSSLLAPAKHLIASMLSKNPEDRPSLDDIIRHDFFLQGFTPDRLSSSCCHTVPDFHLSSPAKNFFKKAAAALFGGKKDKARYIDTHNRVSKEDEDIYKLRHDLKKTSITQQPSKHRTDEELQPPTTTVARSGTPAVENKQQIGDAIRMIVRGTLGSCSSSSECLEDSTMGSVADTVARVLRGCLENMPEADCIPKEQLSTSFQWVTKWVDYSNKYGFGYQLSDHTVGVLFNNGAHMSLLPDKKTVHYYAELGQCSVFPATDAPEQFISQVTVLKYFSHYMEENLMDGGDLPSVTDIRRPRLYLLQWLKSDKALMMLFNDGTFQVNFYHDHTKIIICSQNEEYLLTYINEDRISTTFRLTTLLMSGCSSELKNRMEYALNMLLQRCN
In data set [5] the target is T1, AA (Homo sapiens, UniProt O14965).
T1 sequence (O14965 1-403): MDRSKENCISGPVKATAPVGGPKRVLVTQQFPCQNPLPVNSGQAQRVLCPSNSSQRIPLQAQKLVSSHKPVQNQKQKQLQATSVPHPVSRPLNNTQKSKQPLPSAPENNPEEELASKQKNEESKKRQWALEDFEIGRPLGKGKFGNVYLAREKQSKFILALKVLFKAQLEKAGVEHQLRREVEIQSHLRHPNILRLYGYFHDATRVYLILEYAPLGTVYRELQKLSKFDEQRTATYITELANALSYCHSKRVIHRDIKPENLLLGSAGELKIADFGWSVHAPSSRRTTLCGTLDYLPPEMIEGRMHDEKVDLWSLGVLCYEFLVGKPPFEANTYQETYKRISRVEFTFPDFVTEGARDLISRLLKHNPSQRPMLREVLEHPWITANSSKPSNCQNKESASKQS
Briefly: AA IC50 (Table 1; no method given). In kind it is biochemical. Particulars: Table 2, AurA IC50; class symbols; read-out: AurA IC50.

Where [6] appears, read: Table 2, PLK1 IC50, class symbols.

Where two headings read alike, the source gives them in different places. Some results are limits rather than exact numbers.

The IC50 is the concentration that gives 50% inhibition.

Turning to `COc1cc(C(=O)N[C@H]2CC[C@H](N3CCN(CC4CC4)CC3)CC2)ccc1Nc1ncc2c(n1)N(C1CCCC1)CC1(CC1)C(=O)N2C` [H], in data set [1], the “Oral bioavailability (% F) compared to compounds A-G” value is “markedly superior” and the “Systemic exposure (plasma AUC) compared to compounds A-G” value was “markedly superior”.

With `COc1cc(C(=O)N[C@H]2CC[C@H](N3CCN(CC4CC4)CC3)CC2)ccc1Nc1ncc2c(n1)N(C1CCCC1)CCC(=O)N2C` [I], in data set [1], the “Oral bioavailability (% F) compared to compounds A-G” value is reported as “markedly superior” and the “Systemic exposure (plasma AUC) compared to compounds A-G” value is “markedly superior”.

As for `COc1cc(C(=O)NC2CN3CCC2CC3)ccc1Nc1ncc2c(n1)N(C1CCCC1)CC1(CCC1)C(=O)N2C` (racemic) [Compound 218, (±)-4-(9′-cyclopentyl-5′-methyl-6′-oxo-5′,6′,8′,9′-tetrahydrospiro[cyclobutane-1,7′-pyrimido[4,5-b][1,4]diazepine]-2′-ylamino)-3-methoxy-N-(quinuclidin-3-yl)benzamide], in data set [2] (setting [6]), the concentration for half-maximal inhibition (IC50) was less than 0.1 µM. Further, the IC50 in data set [2] (Table 3) was less than 0.1 µM. In data set [2] (Table 4), the IC50 is less than 0.1 µM. In data set [3], the “Selectivity for PLK1 versus PLK3 compared to compound [I-4] of WO 07/095188” value is given as 5 fold, the “Selectivity for PLK1 versus PLK3 compared to compound [I-64] of WO 07/095188” value is reported as 5 fold and the “Selectivity for PLK1 versus PLK3 compared to compound [I-76] of WO 07/095188” value is reported as approximately 12 fold. Besides, in data set [4], the “Selectivity for PLK1 versus PLK2 compared to compound [I-4] of WO 07/095188” value was 7 fold, the “Selectivity for PLK1 versus PLK2 compared to compound [I-64] of WO 07/095188” value is recorded as “twice” and the “Selectivity for PLK1 versus PLK2 compared to compound [I-76] of WO 07/095188” value was approximately 6 fold.

Consider `CN1C(=O)C2(CC2)CN(C2CCCC2)c2nc(Nc3ccc4[nH]ncc4c3)ncc21` [compound 227, 9-Cyclopentyl-2-(1H-indazol-5-ylamino)-5-methyl-5,7,8,9-tetrahydro-pyrimido[4,5-b][1,4]diazepin-3,1′-cyclopropane-6-one], for which the IC50 in data set [2] (setting [6]) was less than 0.1 µM; in data set [5] it was less than 1 µM.

Regarding `CC(=O)NCc1ccc(Nc2ncc3c(n2)N(C2CCCC2)CCC(=O)N3C)cc1` [compound 86, N-[4-(9-Cyclopentyl-5-methyl-6-oxo-6,7,8,9-tetrahydro-5H-pyrimido[4,5-b][1,4]diazepin-2-ylamino)-benzyl]-acetamide], the concentration for half-maximal inhibition (IC50) is less than 10 µM in data set [2] (setting [6]) and less than 0.1 µM in data set [5].

As to `CCc1cc(C(=O)O)ccc1Nc1ncc2c(n1)N(C1CCCC1)CCC(=O)N2C` [compound 192, 4-(9-Cyclopentyl-5-methyl-6-oxo-6,7,8,9-tetrahydro-5H-pyrimido[4,5-b][1,4]diazepin-2-ylamino)-3-ethyl benzoic acid], the IC50 in data set [2] (setting [6]) and in data set [5] was less than 10 µM throughout.

In the case of `CN1C(=O)C(C)(C)CN(C2CCCC2)c2nc(Nc3ccc4c(c3)CS(=O)(=O)C4)ncc21` [compound 77, 9-Cyclopentyl-2-(2,2-dioxo-2,3-dihydro-1H-2lambda*6*-benzo[c]thiophen-5-ylamino)-5,7,7-trimethyl-5,7,8,9-tetrahydro-pyrimido[4,5-b][1,4]diazepin-6-one], the IC50 in data set [2] (setting [6]) and in data set [5] was less than 1 µM throughout.

On to `CN1C(=O)CCN(C2CCCC2)c2nc(Nc3ccc(CC(=O)O)cc3)ncc21` [compound 172, [4-(9-Cyclopentyl-5-methyl-6-oxo-6,7,8,9-tetrahydro-5H-pyrimido[4,5-b][1,4]diazepin-2-ylamino)-phenyl]-acetic acid], for which the IC50 in data set [2] (setting [6]) was less than 10 µM; in data set [5], less than 0.1 µM.

Take `CN1C(=O)CCN(C2CCCC2)c2nc(Nc3ccc(C(=O)N4CCOCC4)cc3)ncc21` [compound 293, 9-Cyclopentyl-5-methyl-2-[4-(morpholine-4-carbonyl)-phenylamino]-5,7,8,9-tetrahydro-pyrimido[4,5-b][1,4]diazepin-6-one]: the half-inhibitory concentration (IC50) in data set [2] (setting [6]) is less than 10 µM; in data set [5], less than 0.1 µM.

Consider `CN1C(=O)CCN(C2CCCC2)c2nc(Nc3cccc(CN4CCS(=O)(=O)CC4)c3)ncc21` [compound 177, 9-Cyclopentyl-2-[3-(1,1-dioxo-thiomorpholin-4-ylmethyl)-phenylamino]-5-methyl-5,7,8,9-tetrahydro-pyrimido[4,5-b][1,4]diazepin-6-one], for which the IC50 in data set [2] (setting [6]) is less than 1 µM; in data set [5], less than 0.1 µM.

Consider `CC(=O)N(C)S(=O)(=O)c1ccc(Nc2ncc3c(n2)N(C2CCCC2)CCC(=O)N3C)cc1` [compound 97, N-Acetyl-4-(9-cyclopentyl-5-methyl-6-oxo-6,7,8,9-tetrahydro-5H-pyrimido[4,5-b][1,4]diazepin-2-ylamino)-N-methyl-benzenesulfonamide], for which the IC50 is less than 10 µM in data set [2] (setting [6]) and less than 0.1 µM in data set [5].

On to `CC(=O)Nc1ccc(Nc2ncc3c(n2)N(C2CCCC2)CCC(=O)N3C)cc1C` [compound 285, N-[4-(9-Cyclopentyl-5-methyl-6-oxo-6,7,8,9-tetrahydro-5H-pyrimido[4,5-b][1,4]diazepin-2-ylamino)-2-methyl-phenyl]-acetamide], for which the concentration for half-maximal inhibition (IC50) was less than 10 µM in data set [2] (setting [6]) and less than 0.1 µM in data set [5].

Turning to `CN1C(=O)CCN(C2CCCC2)c2nc(Nc3ccc(S(N)(=O)=O)cc3)ncc21` [compound 63, 4-(9-Cyclopentyl-5-methyl-6-oxo-6,7,8,9-tetrahydro-5H-pyrimido[4,5-b][1,4]diazepin-2-ylamino)-benzenesulfonamide], the results for the 50% inhibitory concentration (IC50) in data set [2] (setting [6]) and in data set [5] were less than 10 µM and less than 0.1 µM, respectively.

With `CN1C(=O)CCN(C2CCCC2)c2nc(Nc3ccc4[nH]ncc4c3)ncc21` [compound 139, 9-Cyclopentyl-2-(1H-indazol-5-ylamino)-5-methyl-5,7,8,9-tetrahydro-pyrimido[4,5-b][1,4]diazepin-6-one], the results for the IC50 in data set [2] (setting [6]) and in data set [5] were less than 1 µM and less than 0.1 µM, respectively.

For the compound `CCC1CN(C2CCCC2)c2nc(Nc3ccc(C(=O)O)cc3)ncc2N(C)C1=O` (stereo not drawn) [compound 41, 4-(9-Cyclopentyl-7-ethyl-5-methyl-6-oxo-6,7,8,9-tetrahydro-5H-pyrimido[4,5-b][1,4]diazepin-2-ylamino)-benzoic acid], the IC50 was less than 1 µM in data set [2] (setting [6]) and less than 0.1 µM in data set [5].

Regarding `C=CCN1CCC(=O)N(C)c2cnc(Nc3ccc4c(c3)CS(=O)(=O)C4)nc21` [compound 119, 9-Allyl-2-(2,2-dioxo-2,3-dihydro-1H-2lambda*6*-benzo[c]thiophen-5-ylamino)-5-methyl-5,7,8,9-tetrahydro-pyrimido[4,5-b][1,4]diazepin-6-one], the results for the IC50 in data set [2] (setting [6]) and in data set [5] were less than 10 µM and less than 0.1 µM, respectively.

For the origin of these results see US8563542B2 (Cyclacel Limited, priority 2007, dated 2013).
